Measured values reported in paper PMC7000209, “Novel small molecule modulators of quorum sensing in avian pathogenic Escherichia coli (APEC)” (Virulence, 2018).

Tests used:
[1] = test system: AI-2 activity of APEC O78; assay: AI-2 bioluminescence indicator assay (V. harveyi BB170), APEC O78 supernatant; assay type: cell-based, avian pathogenic E. coli (APEC) O78; conditions: Escherichia coli, read-out: % Inhibtion of AI-2 activity
Procedure: (§1) Overnight culture of APEC O78 prepared in LB broth was adjusted to an optical density (OD600) of 0.05 (7 × 10^7 CFU/mL) in fresh LB broth. One hundred micro-liters of the culture was transferred to a 96-well plate and 1µL (100 μM final concentration) of the compound was added to each well using a pin tool. Chloramphenicol (40 μg/mL) or kanamycin (30 μg/mL) and 1μL of 100% DMSO were included as controls in each plate. Plates were incubated at 37 °C for 10 h with shaking in a Sunrise^TM Tecan plate reader (Tecan Group Ltd. San Jose, CA, USA) and the growth was kinetically monitored every 30 min by measuring the OD at 600 nm.
(§2) The AI-2 bioluminescence assay was performed as described previously. Briefly, APEC O78 cultures grown in the presence of SMs (see above) were centrifuged at 5000 × g for 10 min, and cell-free culture supernatants were prepared by using a 0.22 µm filter 96 well plate (Millipore). The bioluminescence reporter V. harveyi BB170 (AI-1^+ and AI-2^-) was grown overnight in AB medium at 30 °C aerobically with shaking. The overnight culture was diluted to 1:5000 in fresh AB medium and incubated at 30 °C for 3 h. Following incubation, 180 μL of the V. harveyi BB170 culture was distributed into each well of a 96-well plate and mixed with 20 µL of the cell free culture supernatant, the plate was then incubated at 30 °C for 2.5 h in the dark and the bioluminescence was measured using in vivo imaging system (IVIS Lumina Series III, PerkinElmer, USA). […] Cell-free culture supernatants collected from overnight cultures of V. harveyi BB120 (AI-1^+andAI-2^+) and E. coli DH5α (a strain lacks AI-2) were used as controls. Bioluminescence of SMs treated culture supernatants were compared to DMSO treated control. The Z-score was calculated to evaluate the quality of the bioluminescence screening. Four independent experiments were conducted for the 69 compounds that inhibited ≥ 75% of the AI-2 mediated bioluminescence and the average inhibition percentage was calculated.

AI-2 activity of APEC O1 = assay: AI-2 bioluminescence indicator assay, APEC O1; assay type: cell-based, avian pathogenic E. coli (APEC) O1; conditions: Escherichia coli, read-out: % Inhibtion of AI-2 activity, serotype O1, bioluminescence vs DMSO treated control
Procedure: as §1, §2
(§3) The selected compounds were also tested for inhibition of AI-2 production in other APEC serotypes such as O1, O2, O8, O15, O18, O35, O109, and O115 that are commonly implicated in colibacillosis using the same procedure described above.

AI-2 activity of O115 = assay: AI-2 bioluminescence indicator assay, APEC O115; assay type: cell-based, avian pathogenic E. coli (APEC) O115; conditions: Escherichia coli, read-out: % Inhibtion of AI-2 activity, serotype O115, bioluminescence vs DMSO treated control
Procedure: as §1, §2, §3

AI-2 activity of O35 = assay: AI-2 bioluminescence indicator assay, APEC O35; assay type: cell-based, avian pathogenic E. coli (APEC) O35; conditions: Escherichia coli, read-out: % Inhibtion of AI-2 activity, serotype O35, bioluminescence vs DMSO treated control
Procedure: as §1, §2, §3

AI-2 activity of O18 = assay: AI-2 bioluminescence indicator assay, APEC O18; assay type: cell-based, avian pathogenic E. coli (APEC) O18; conditions: Escherichia coli, read-out: % Inhibtion of AI-2 activity, serotype O18, bioluminescence vs DMSO treated control
Procedure: as §1, §2, §3

[2] = test system: APEC O78 biofilm formation; assay: Biofilm assay (crystal violet); assay type: cell-based, avian pathogenic E. coli (APEC) O78; conditions: 48 h; for inhibition at 100 µM: Escherichia coli, crystal violet OD550 vs DMSO control, read-out: reduction of APEC O78 biofilm formation
Procedure: Effect of the selected AI-2 inhibitors on biofilm formation was assessed using the crystal violet (CV) assay. Briefly, APEC O78 was grown in LB broth in the presence of 100 µM of each compound in a 96-well plate at 37 °C for 10 h. The culture was then diluted 1:100 in fresh LB broth. The biofilm assay was performed in a 96-well plate containing 150 µL of the diluted culture and 100 µM of each compound. The plate was then incubated aerobically without shaking at 37 °C for 48 h, washed twice with PBS to remove the non-adherent cells and stained with 200 µL of 0.1% CV in water at room temperature for 10 min. The plate was washed with PBS and biofilm was quantified by measuring the absorbance at 550 nm after solubilizing the CV in 200 μL of 30% acetic acid in water for 15 min.

AI-2 activity of O15 = assay: AI-2 bioluminescence indicator assay, APEC O15; assay type: cell-based, avian pathogenic E. coli (APEC) O15; conditions: Escherichia coli, read-out: % Inhibtion of AI-2 activity, serotype O15, bioluminescence vs DMSO treated control
Procedure: as §1, §2, §3

[3] = test system: QS-regulated and virulence factors genes of APEC O78; assay: qRT-PCR of QS-regulated and virulence factor genes; assay type: cell-based, avian pathogenic E. coli (APEC) O78; conditions: APEC O78, 100 µM, 10 h, ∆∆Ct vs DMSO
Procedure: The effect of the selected AI-2 inhibitors on the expression of QS-regulated and virulence factors genes of APEC was determined using qRT-PCR. APEC O78 was grown in the presence of 100 µM of each compound in a 96-well plate at 37 °C for 10 h. APEC O78 culture treated with 1µL of 100% DMSO was used as control. Total RNA was extracted from duplicate wells for each compound (200 µL) using a miRNeasy Mini Kit (Qiagen). RNA quality and quantity was determined by nanodrop 2000 C spectrophotometer (Thermo scientific). Traces of DNA were removed using Genomic DNA removal mix (Qiagen). Approximately, 5 μg of purified RNA was used to synthesize cDNA using the Qiagen RT^2 First Strand Kit (Qiagen). The qRT-PCR was performed using SensiMix^TM SYBR® Hi-ROX qPCR Master Mix (Bioline) according to manufacturer instructions in a realplex^2 mastercycler (Eppendorf) with 55 °C annealing temperature. Gene-specific primers were designed using PrimerQuest Tool and obtained from integrated DNA technologies (IDT). The data were normalized to the house-keeping gene, glyceraldehyde-3-phosphate dehydrogenase (GAPDH). The relative fold change was calculated using the ∆∆Ct method. Three independent experiments were conducted.

AI-2 activity of O109 = assay: AI-2 bioluminescence indicator assay, APEC O109; assay type: cell-based, avian pathogenic E. coli (APEC) O109; conditions: Escherichia coli, read-out: % Inhibtion of AI-2 activity, serotype O109, bioluminescence vs DMSO treated control
Procedure: as §1, §2, §3

Compound	inhibition at 100 µM [1]	inhibition at 100 µM (AI-2 activity of APEC O1)	inhibition at 100 µM (AI-2 activity of O115)	inhibition at 100 µM (AI-2 activity of O35)	inhibition at 100 µM (AI-2 activity of O18)	inhibition at 100 µM [2]	inhibition at 100 µM (AI-2 activity of O15)	expression of cheW [3]	expression of csrA [3]	expression of iss [3]	expression of murD [3]	expression of ugpC [3]	inhibition at 100 µM (AI-2 activity of O109)	expression of fliP [3]	expression of fpr [3]	expression of hha [3]	other results
Fc1ccc(CN2CCCN(Cc3nc(-c4ccc(C(F)(F)F)cc4)no3)CC2)cc1 [C9, 1-(4-fluorobenzyl)-4-({3-[4-(trifluoromethyl)phenyl]-1,2,4-oxadiazol-5-yl}methyl)-1,4-diazepane]	79%	19%	44%	36%	14%	52 to 58%	0%	down-regulated	down-regulated	up-regulated	down-regulated	down-regulated	66%				expression of bolA [3]: down-regulated; expression of nlpC [3]: up-regulated
O=[N+]([O-])c1cccc(S(=O)(=O)Nc2ccc(Br)cc2)c1 [C6, N-(4-bromophenyl)-3-nit robenzenesulfonamide]	92%	≥ 75%			≥ 75%	63 to 66%		down-regulated	down-regulated		down-regulated		60%	down-regulated	down-regulated	down-regulated	
COCCN1CCC(CN(Cc2ccncc2)Cc2ccccc2Cl)CC1 [C1, (2-chlorobenzyl){[1-(2-methoxyethyl)-4-piperidinyl]methyl}(4-pyridinylmethyl)amine]	84%	≥ 75%	64%	48%	37%		13%			down-regulated	down-regulated	down-regulated	65%			down-regulated	effect on APEC O78 biofilm formation (in words) ([2]; 100 µM, vs DMSO treated control): no effect; expression of thiH [3]: down-regulated
NC(=O)c1ccccc1Nc1cccc(C(F)(F)F)c1 [C3, 2-{[3-(trifluoromethyl)phenyl]amino}benzamide]	78%	65%	35%	37%	8%	63 to 66%	0%						0%		down-regulated		
CS/C(N)=N/N=C/c1cc(C)ccc1O [C4, methyl N'-(2-hydroxy-5-methylbenzylidene)h ydrazonothiocarbamate]	75%	63%	58%	60%	54%	63 to 66%	46%	down-regulated	down-regulated				67%				expression of iucD [3]: down-regulated; expression of luxS [3]: did not; expression of pfs [3]: up-regulated
OCCC1CN(C2CCN(c3ccccc3)CC2)CCN1CCCc1ccccc1 (centres unmarked) [C10, 2-[4-(1-phenyl-4-piperidinyl)-1-(3-phenylpropyl)-2-piperazinyl]ethanol]	84%	64%	≥ 75%	47%	35%	52 to 58%	22%			down-regulated			57%	down-regulated			expression of frwC [3]: down-regulated
O=C(CCN1CCN(c2ccccc2F)CC1)Nc1ccc(Br)cc1 [C7, N-(4-bromophenyl)-3-[4-(2-fluorophenyl)-1-piperazinyl]propanamide]	94%	47%	45%	62%	48%	63 to 66%	36%						67%				expression of nlpC [3]: up-regulated
CCc1ccccc1Nc1nc(-c2c(C)nc3ccccn23)cs1 [C8, N-(2-ethylphenyl)-4-(2-methylimidazo[1,2-a]pyridin-3-yl)-1,3-thiazol-2-amine]	98%	41%	44%	57%	54%	52 to 58%	25%					down-regulated	≥ 75%	down-regulated			
Cc1ccc(CN2CCN(CCCc3ccccc3)CC2)cc1 [C5, 1-(4-methylbenzyl)-4-(3-phenylpropyl)piperazine]	83%	46%	63%	68%	61%	63 to 66%	45%						69%	down-regulated	down-regulated	down-regulated	expression of wzb [3]: down-regulated
Cc1ccccc1N1CCN(C2CCCN(C(=O)c3ccc(F)c(Cl)c3)C2)CC1 (centres unmarked) [C2, 1-[1-(3-chloro-4-fluorobenzoyl)-3-piperidinyl]-4-(2-methylphenyl)piperazine]	92%	64%	52%	55%	43%	52 to 58%	27%					down-regulated	57%			down-regulated	
